From PMC6470589, “Contribution of Molecular Structure to Self-Assembling and Biological Properties of Bifunctional Lipid-Like 4-(N-Alkylpyridinium)-1,4-Dihydropyridines” (Pharmaceutics, 2019)
Values joined by “and” are separate entries in the source; they are usually repeats but may differ in a detail not shown here. Identical values can stand only once. “Also recorded” adds a separate entry of the source.

Legend:
[1] = Self-assembling properties by dynamic light scattering (DLS); type: physicochemical; conditions: for PDI ± SD, 1 Set: freshly prepared samples; for Zeta-Pot ± SD: freshly prepared samples in water, 0.5 mg/mL (1–7), 0.25 mg/mL (8–10), 0.1 mg/mL (11); for PDI ± SD, 2 Set: two weeks after the first set, samples stored at r.t.; for Stability of nanoparticles: two weeks of storage at r.t., DLS
Procedure: Samples of compounds for dynamic light scattering (DLS) studies were prepared by thin-film hydration method in an aqueous solution at a concentration of 0.5 mg/mL for compounds 1–7, 0.25 mg/mL for compounds 8–10, and 0.1 mg/mL for compound 11. A corresponding amount of compounds was weighted in a round-bottom flask and dissolved in chloroform; then, the organic solvent was removed in vacuo, and the residue was dried in high vacuo for 1 h. An appropriate amount of deionised water was added to each flask for the preparation of stock solutions with the above-mentioned concentrations. Samples were prepared by sonication using a bath-type sonicator (Cole Parmer Ultrasonic Cleaner 8891CPX (Vernon Hills, IL, USA)). Samples were sonicated for 60 min at 50 °C.
The DLS measurements of the nanoparticles in an aqueous solution were carried out on a Zetasizer Nano ZSP (Malvern Panalytical Ltd., Malvern, UK) instrument with Malvern Instruments Ltd. Software 7.12, using the following specifications—medium: water; refractive index: 1.33; viscosity: 0.8872 cP; temperature: 25 °C; dielectric constant: 78.5; nanoparticles: liposomes; refractive index of materials: 1.60; detection angle: 173°; wavelength: 633 nm. Data were analysed using the multimodal number distribution software that was included with the instrument. The measurements were performed in triplicate in order to check their reproducibility.

[2] = test system: MH-22A (mouse hepatocarcinoma) cells; experiment: MTT cytotoxicity assay on MH-22A tumor cells, 72 h; type: cell-based; conditions: MTT, 72 h; ne = no effect in the tested concentration (up to 100 μg/mL)
Procedure: (§1) Tumor cell lines HT-1080 (human connective tissue fibrosarcoma) and MH-22A (mouse hepatocarcinoma) were used. All of the cells were obtained from the American Type Culture Collection ((ATCC,) Rockville, MD, USA). HT-1080 and MH-22A cells (4 × 10^4 cell/mL) were seeded in 96-well plates in Dulbecco’s modified Eagle’s medium (DMEM) containing 10% fetal bovine serum and cultivated for 72 h at 37 °C, 5% CO2 by exposure to different compounds concentrations (100 μg/mL, 25 μg/mL, 6.25 μg/mL, and 1.56 μg/mL). Cell viability was measured using 3-(4,5-dimethylthiazol-2-yl)-2,5-diphenyl-tetrazolium bromide (MTT) assay. In brief, after incubating with compounds, the culture medium was removed and fresh medium with 0.2 mg/mL MTT was added in each well of the plate. After incubation (3 h, 37 °C, 5% CO2), the medium with MTT was removed, and 200 μL of DMSO was added at once to each sample. The samples were tested at 540 nm on a Tecan multiplate reader Infinite1000 (Tecan Austria GmbH, Salzburg, Austria). The IC50 was calculated using the program Graph Pad Prism® 3.0.

[3] = test system: HT-1080 (human connective tissue fibrosarcoma) cells; experiment: MTT cytotoxicity assay on HT-1080 tumor cells, 72 h; type: cell-based; conditions: MTT, 72 h; ne = no effect in the tested concentration (up to 100 μg/mL)
Procedure: as §1

[4] = MTT cytotoxicity assay on MH-22A tumor cells, 72 h; type: cell-based, mouse; conditions: mouse, MH-22A hepatocarcinoma cells, MTT, 72 h; ne = no effect in the tested concentration (up to 100 μg/mL); read-out: Cytotoxicity IC50, MH-22A
Procedure: as §1

[5] = MTT cytotoxicity assay on HT-1080 tumor cells, 72 h; type: cell-based, human; conditions: human, HT-1080 fibrosarcoma cells, MTT, 72 h; ne = no effect in the tested concentration (up to 100 μg/mL); read-out: Cytotoxicity IC50, HT-1080
Procedure: as §1

[6] = test system: NIH 3T3 (Mouse Swiss Albino embryo fibroblast) cells; experiment: Basal cytotoxicity test (neutral red uptake) with estimation of LD50 from IC50; type: cell-based; conditions: category by estimated LD50 (mg/kg)
Procedure: The neutral red uptake (NRU) assay was performed according to the standard protocol of Stokes modified by NICEATM-ECVAM validation study. The NRU cytotoxicity assay procedure was based on the ability of viable cells to incorporate and bind neutral red, which is a supravital dye.
NIH 3T3 (Mouse Swiss Albino embryo fibroblast) cells (9000 cells/well) were placed into 96-well plates for 24 h in DMEM medium containing 5% fetal bovine serum (FBS). Then, they were exposed to the test compound over a range of seven concentrations (1000 μg/mL, 316 μg/mL, 100 μg/mL, 31 μg/mL, 10 μg/mL, 3.0 μg/mL, and 1.0 μg/mL) for 24 h. Untreated cells were used as a control. After 24 h, the medium was removed from all plates. Then, 250 μL of neutral red (NR) solution was added (0.05 mg/mL NR in DMEM 24 h pre-incubated at 37 °C and then filtered before use through a 0.22-µm syringe filter). Plates were incubated for 3 h, and then, cells were washed three times with phosphate buffered saline (PBS). The dye within viable cells was released by extraction with a mixture of acetic acid, ethanol, and water (1:50:49). The absorbance of neutral red was measured using a spectrophotometer multiplate reader Infinite M1000 (Tecan Austria GmbH, Salzburg, Austria) at 540 nm. The optical density (OD) was calculated using the formula: OD (treated cells) × 100/OD (control cells). The IC50 values were calculated using the program Graph Pad Prism® 3.0.
Data from the in vitro tests were used for estimating the starting dose for acute oral systemic toxicity tests in rodent. The in vivo starting dose is an estimated LD50 value that is calculated by inserting the in vitro IC50 value into a regression formula: log LD50 (mM/kg) = 0.439 log IC50 (mM) + 0.621 [29]. The value is recalculated to mg/kg, and compounds are evaluated in accordance with four toxicity categories: category 1: LD50 ≤ 5 mg/kg (highly toxic); category 2: 5 < LD50 ≤ 50 mg/kg (moderately toxic); category 3: 50 < LD50 ≤ 300 mg/kg (slightly toxic); category 4: 300 < LD50 ≤ 2000 mg/kg (practically non-toxic). Using an alternative in vitro method enables comparing the possible toxicity of new compounds and selecting compounds for further study, which will vastly reduce the number of animal experiments.

[7] = Determination of critical aggregation concentration (CAC) by DLS; type: physicochemical; conditions: aqueous media
Procedure: The critical aggregation concentrations (CAC) of 4-(N-alkylpyridinium)-1,4-DHP derivatives were determined in aqueous media using a Zetasizer Nano S90 (Malvern Panalytical Ltd., Malvern, UK) instrument with Malvern Instruments Ltd. Software according to procedure described by Topel et al. and modified by our group. Briefly, as stock solutions of tested compounds were used, samples were prepared for self-assembling experiments. All of the subsequent samples were prepared starting from the concentrated stock solution, which was subjected to a serial two-fold dilution each time with water. The intensity values of scattered light (kcps) as a function of concentration of amphiphiles were analysed. The scattering intensities detected for amphiphile concentrations below CAC have an approximately constant value corresponding to water. The intensity starts to show a linear increase with concentration at the CAC, since the amount of nanoparticles increases in the solution. The intersection of the best-fit lines drawn through the data points is the preliminary CAC value of the compounds.

Pseudomonas aeruginosa = experiment: Toxicity screen, serial dilution-spot test; type: cell-based; conditions: gram negative; 24 h exposure in DI water, 28 °C; 0.0001 = no colonies at 0.001 mM;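 further: last dilution that did not fully inhibit growth with colonies still present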
Procedure: (§2) An estimation of the toxicity of 4-(N-alkylpyridinium)-1,4-DHP derivatives 3, 6, 7, and 9–11 was performed using six prokaryotic (bacteria) and one eukaryotic (yeast) microorganism species according to the procedure elaborated by Suppi et al.. The microorganisms used in the study and their origin were: Bacillus subtilis subsp. spizizenii (ATCC® 6633™*, Microbiologics®, St Cloud, MN, USA), Escherichia coli (ATCC® 8739, Microbiologics®), Klebsiella pneumoniae (Latvian Microorganisms strain collection, LMKK, strain number 535, Riga, Latvia), Micrococcus luteus (LMKK, No. 25), Pseudomonas aeruginosa (NCTC 12924, Biosciences Ltd., Dublin, Ireland), Proteus mirabilis (LMKK, No 590), and Saccharomyces cerevisiae, CEN.PK2 strain [32].
(§3) Bacteria and yeast cultures were cultivated until their exponential growth phase (optical density max 1); then, 100 µL of cell suspension was taken, washed in deionised (DI) water, and added to serially diluted samples of corresponding 4-(N-alkylpyridinium)-1,4-DHPs in DI water. All 1,4-DHPs were tested in five serially diluted concentrations (10 mM, 1 mM, 0.1 mM, 0.01 mM, and 0.001 mM). Test organisms were exposed to 1,4-DHP derivatives in DI water on 96-well microplates (Corning, Corning, NY, USA) at 28 °C for 24 h without shaking in the dark. Then, a 5 µL sample was taken from each well and spotted on yeast extract, bactopeptone, dextrose broth (YPD) (yeast extract 1%, bactopeptone 2%, glucose 2% and agar 2%) plates to test the growth of yeasts and lysogeny broth (LB) (yeast extract 0.5%, bactopeptone 1%, NaCl 0.5% and agar 2%) to test the growth for bacteria. Plates were left in 30 °C for 24 h, and assessed for microbial growth.
(§4) If there were no colonies after incubation with 1,4-DHPs in the last concentration of (0.001 mM), then their boundary concentration was set to 0.0001 mM or 0.1 µM.

[8] = test system: Saccharomyces cerevisiae, CEN.PK2 strain; experiment: Toxicity screen, serial dilution-spot test; type: cell-based; conditions: yeast; 24 h exposure in DI water, 28 °C; 0.0001 = no colonies at 0.001 mM;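 further: last dilution that did not fully inhibit growth with colonies still present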
Procedure: as §2, §3, §4

Klebsiella pneumoniae = experiment: Toxicity screen, serial dilution-spot test; type: cell-based; conditions: gram negative; 24 h exposure in DI water, 28 °C; 0.0001 = no colonies at 0.001 mM;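 further: last dilution that did not fully inhibit growth with colonies still present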
Procedure: as §2, §3, §4

Micrococcus luteus = experiment: Toxicity screen, serial dilution-spot test; type: cell-based; conditions: gram positive; 24 h exposure in DI water, 28 °C; 0.0001 = no colonies at 0.001 mM;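 further: last dilution that did not fully inhibit growth with colonies still present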
Procedure: as §2, §3, §4

Proteus mirabilis = experiment: Toxicity screen, serial dilution-spot test; type: cell-based; conditions: gram negative; 24 h exposure in DI water, 28 °C; 0.0001 = no colonies at 0.001 mM;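 further: last dilution that did not fully inhibit growth with colonies still present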
Procedure: as §2, §3, §4

[9] = test system: Bacillus subtilis subsp. spizizenii; experiment: Toxicity screen, serial dilution-spot test; type: cell-based; conditions: gram positive; 24 h exposure in DI water, 28 °C; 0.0001 = no colonies at 0.001 mM;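 further: last dilution that did not fully inhibit growth with colonies still present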
Procedure: as §2, §3, §4

Escherichia coli = experiment: Toxicity screen, serial dilution-spot test; type: cell-based; conditions: gram negative; 24 h exposure in DI water, 28 °C; 0.0001 = no colonies at 0.001 mM;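 further: last dilution that did not fully inhibit growth with colonies still present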
Procedure: as §2, §3, §4

[10] = test system: six prokaryotic (bacteria) and one eukaryotic (yeast) microorganism species; experiment: Toxicity screen, whole panel of microorganisms; type: cell-based; conditions: concentrations tested 10 to 0.001 mM
Procedure: as §2, §3, §4

Compound	PDI ± SD, 1 Set [1]	Zeta-Pot ± SD [1] [mV]	PDI ± SD, 2 Set [1]	Stability of nanoparticles [1]	Cytotoxicity IC50, MH-22A [2]	Cytotoxicity IC50, HT-1080 [3]	IC50 at 72 h [4] [µM]	IC50 at 72 h [5] [µM]	Toxicity category from estimated LD50 [6]	CAC [7] [µM]	Boundary concentration, P. aeruginosa (Pseudomonas aeruginosa) [mM]	Boundary concentration, S. cerevisiae [8] [mM]	Boundary concentration, K. pneumoniae (Klebsiella pneumoniae) [mM]	Boundary concentration, M. luteus (Micrococcus luteus) [mM]	Boundary concentration, P. mirabilis (Proteus mirabilis) [mM]	Boundary concentration, B. subtilis [9] [mM]	Boundary concentration, E. coli (Escherichia coli) [mM]	Effect on survival of microorganisms [10]
CCOC(=O)C1=C(C)NC(C)=C(C(=O)OCC)C1c1ccc[n+](CC)c1 [Compound 1]	0.18 and 0.18 ± 0.01	−8.43 ± 2.14	0.40 and 0.40 ± 0.16	lost their homogeneity after two weeks of storage; also recorded: weak stability	did not demonstrate any cytotoxic effect and ne	did not demonstrate any cytotoxic effect and ne	–	–	–	–	–	–	–	–	–	–	–	–
CCCCCC[n+]1cccc(C2C(C(=O)OCC)=C(C)NC(C)=C2C(=O)OCC)c1 [Compound 2]	0.50 and 0.50 ± 0.10	−11.39 ± 1.85	0.91 ± 0.10	weak stability	–	–	67 ± 4	26 ± 2	non-toxic	–	–	–	–	–	–	–	–	–
C#CCN1C(C)=C(C(=O)OCC)C(c2ccc[n+](CC)c2)C(C(=O)OCC)=C1C [Compound 4]	0.16 and 0.16 ± 0.02	−5.47 ± 1.97	0.41 and 0.41 ± 0.07	lost their homogeneity after two weeks of storage; also recorded: weak stability	did not demonstrate any cytotoxic effect and ne	did not demonstrate any cytotoxic effect and ne	–	–	–	–	–	–	–	–	–	–	–	–
C#CCN1C(C)=C(C(=O)OCC)C(c2ccc[n+](CCCCCC)c2)C(C(=O)OCC)=C1C [Compound 5]	0.72 and 0.72 ± 0.32	−9.96 ± 0.72	0.59 ± 0.01	weak stability	–	–	16 ± 1	5 ± 0.3	non-toxic	–	–	–	–	–	–	–	–	–
C#CCOC(=O)C1=C(C)NC(C)=C(C(=O)OCC#C)C1c1ccc[n+](CCCCCC)c1 [Compound 8]	0.60 and 0.60 ± 0.06	–	0.45 ± 0.05	–	–	–	80 ± 5	76 ± 8	non-toxic	–	–	–	–	–	–	–	–	–
C#CCN1C(C)=C(C(=O)OCC)C(c2ccc[n+](CCCCCCCCCCCCCCCC)c2)C(C(=O)OCC)=C1C [Compound 11]	0.37 and 0.37 ± 0.03	–	0.33 and 0.33 ± 0.03	stable after two weeks of storage; also recorded: confirmed the stability of nanoparticles	–	–	–	–	–	7.6	0.01	0.0001	10	0.001	0.0001	0.0001	0.01	toxic at various degrees
